Target: T1, ERCC1-XPF (Homo sapiens, UniProt Q92889)
T1 construct: the final purity of the full-length ERCC1-XPF heterodimer was determined to be ~35%; His6; made in house; host or cells: E. coli BL21(DE3)
T1 sequence (Q92889 1-916): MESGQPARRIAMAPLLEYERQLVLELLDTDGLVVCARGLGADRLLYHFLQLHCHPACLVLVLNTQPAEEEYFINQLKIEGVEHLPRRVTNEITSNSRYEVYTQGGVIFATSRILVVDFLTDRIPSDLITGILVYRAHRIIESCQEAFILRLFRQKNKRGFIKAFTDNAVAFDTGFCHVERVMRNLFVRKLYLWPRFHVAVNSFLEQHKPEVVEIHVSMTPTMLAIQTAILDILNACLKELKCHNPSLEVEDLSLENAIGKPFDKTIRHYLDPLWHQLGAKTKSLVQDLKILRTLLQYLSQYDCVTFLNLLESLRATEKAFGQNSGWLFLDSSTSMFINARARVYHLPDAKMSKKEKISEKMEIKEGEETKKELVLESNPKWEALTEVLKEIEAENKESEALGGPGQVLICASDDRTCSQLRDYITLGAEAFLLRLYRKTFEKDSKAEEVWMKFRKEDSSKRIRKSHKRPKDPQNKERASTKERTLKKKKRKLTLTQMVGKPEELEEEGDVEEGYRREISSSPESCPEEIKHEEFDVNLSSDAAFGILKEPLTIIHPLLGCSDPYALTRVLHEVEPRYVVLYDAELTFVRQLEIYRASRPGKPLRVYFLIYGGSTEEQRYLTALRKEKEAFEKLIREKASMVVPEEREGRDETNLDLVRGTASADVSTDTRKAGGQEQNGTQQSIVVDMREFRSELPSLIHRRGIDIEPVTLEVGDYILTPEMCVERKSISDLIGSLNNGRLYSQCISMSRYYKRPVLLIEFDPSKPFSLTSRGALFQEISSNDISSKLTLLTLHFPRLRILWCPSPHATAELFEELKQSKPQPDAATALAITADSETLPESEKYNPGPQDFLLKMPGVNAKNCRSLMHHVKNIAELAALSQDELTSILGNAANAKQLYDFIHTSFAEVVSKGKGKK
Test: Steady state intrinsic fluorescence quenching binding assay
Details: excitation 295 nm, emission 330 nm
Procedure: Steady-state fluorescence spectra were measured at room temperature on a PerkinElmer LS-55 spectrofluorometer (Freemont, CA) as previously described ([70]). In studying the effects of inhibitors on protein fluorescence intensities, additions to protein samples were made from inhibitor stock solutions in DMSO, keeping the protein dilution below 3%. Data were plotted using GraphPad Prism version 5.04 software (San Diego, California)
Investigation of the binding of compound 6 to ERCC1-XPF was carried out via intrinsic fluorescence spectroscopy. The tryptophan residues of ERCC1-XPF were irradiated at 295 nm and the emission at 330 nm was monitored. Upon addition of compound 6 quenching of the intrinsic fluorescence of the protein was observed, consistent with ligand binding to a protein. The binding affinity was determined by plotting emission at 330 nm against increasing concentration of compound 6 ( Figure 3C ).

COc1ccc2nc3cc(Cl)ccc3c(Nc3ccc(O)c(CN4CCN(CCN(C(C)C)C(C)C)CC4)c3)c2c1 [Compound 6]
Kd: 140 ± 10 nM
